Test results as given in PMC13586173, “Synthetic cannabinoid receptor agonists inhibit the cardiac voltage-gated potassium channel hERG” (Acta Pharmacologica Sinica, 2026).
Like-named read-outs stand apart in the source and are kept apart here.

Legend:
hERG = settings: cited from earlier work
hERG (KV11.1) = hERG (KV11.1) (Homo sapiens, UniProt Q12809); experiment: Automated planar patch-clamp (APC, QPatch II 48), voltage-ladder protocol, CHO cells stably expressing human hERG; settings: for hERG channel Efficacy (max reduction in Gmax) Gmin, marked *: * Greatest efficacy achieved with a concentration between 10 and 30 µM (no fit); for hERG channel Efficacy (max reduction in Gmax) Gmin, marked * / hERG channel Efficacy (max reduction in Gmax) Gmin: 1 = no reduction of Gmax; for effect on Gmax of hERG (in words): APC concentration-response, 1.11 to 30 µM; for hERG channel Efficacy (max reduction in Gmax) Gmin: 0 = complete reduction
hERG (KV11.1), sequence (Q12809 whole entry): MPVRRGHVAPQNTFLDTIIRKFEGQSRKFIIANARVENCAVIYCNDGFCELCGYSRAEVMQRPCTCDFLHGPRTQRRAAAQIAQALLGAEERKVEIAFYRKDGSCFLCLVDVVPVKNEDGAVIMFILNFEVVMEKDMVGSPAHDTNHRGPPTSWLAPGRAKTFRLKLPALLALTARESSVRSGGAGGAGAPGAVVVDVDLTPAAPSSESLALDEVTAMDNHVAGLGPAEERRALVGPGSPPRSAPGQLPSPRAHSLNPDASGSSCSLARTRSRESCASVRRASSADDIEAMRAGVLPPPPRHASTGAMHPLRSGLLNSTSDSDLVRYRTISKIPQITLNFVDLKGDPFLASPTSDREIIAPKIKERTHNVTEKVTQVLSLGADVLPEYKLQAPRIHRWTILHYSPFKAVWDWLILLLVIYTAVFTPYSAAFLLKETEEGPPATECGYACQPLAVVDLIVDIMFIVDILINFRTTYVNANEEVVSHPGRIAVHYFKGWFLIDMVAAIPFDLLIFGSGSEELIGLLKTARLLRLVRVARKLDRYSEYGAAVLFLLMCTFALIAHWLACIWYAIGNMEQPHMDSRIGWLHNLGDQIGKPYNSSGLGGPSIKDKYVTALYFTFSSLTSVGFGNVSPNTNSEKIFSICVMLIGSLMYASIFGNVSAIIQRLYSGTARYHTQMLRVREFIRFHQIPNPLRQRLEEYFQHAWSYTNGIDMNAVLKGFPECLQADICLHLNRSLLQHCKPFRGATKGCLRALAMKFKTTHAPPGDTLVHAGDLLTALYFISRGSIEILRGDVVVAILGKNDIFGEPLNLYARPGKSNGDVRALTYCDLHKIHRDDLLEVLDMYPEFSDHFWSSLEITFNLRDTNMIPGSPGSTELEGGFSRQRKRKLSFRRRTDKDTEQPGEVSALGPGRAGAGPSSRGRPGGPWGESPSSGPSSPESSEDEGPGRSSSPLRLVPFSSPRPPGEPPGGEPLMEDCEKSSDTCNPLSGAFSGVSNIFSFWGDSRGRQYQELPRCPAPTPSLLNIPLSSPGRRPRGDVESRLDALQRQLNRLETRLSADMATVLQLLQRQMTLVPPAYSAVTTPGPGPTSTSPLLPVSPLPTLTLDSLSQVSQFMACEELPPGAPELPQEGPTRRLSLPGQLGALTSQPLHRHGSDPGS
Description: To assess the effect of a large set of SCRAs on hERG (see SI Table I and SI Fig. S1 for a list of the 36 included SCRAs and corresponding structures), we used the automated planar patch-clamp (APC) technique on mammalian Chinese hamster ovary (CHO) cells stably expressing human hERG. […] We employed a voltage-ladder protocol to obtain information on SCRA effects on the channel’s voltage dependence of activation (V50) and maximal conductance (Gmax) (both determined from Boltzmann fits of the instantaneous tail currents; see Methods for details).
Stably expressing cell lines “CHO-hERG DUO” (here referred to as hERG; gene: KCNH2) and “CHO-KVLQT1/mink” (here referred to as KV7.1/KCNE1; gene: KCNQ1/KCNE1), (B’SYS GmBH, Witterswil, Switzerland) were used to study whole-cell K^+ currents on a QPatch II 48 APC system (Sophion Bioscience A/S, Ballerup, Denmark). Cell culture and passaging were performed in accordance with standard operating procedures. Cells were harvested in serum-free medium with Detachin^TM (Genlantis, CA, USA) immediately prior to experiments. For MPC on transient cell lines, CHO-K1 CCL-61 cells (ATCC, Manassas, VA, USA) were cultured in Ham’s F-12 medium supplemented with 10% fetal bovine serum (FBS) and 100 U/mL penicillin–100 µg/mL streptomycin (Gibco, Thermo Fisher Scientific, Waltham, MA, USA). Transfection was carried out using JetOPTIMUS® reagent (Polyplus, Strasbourg, France) according to the manufacturer’s protocol. Briefly, 80,000 cells were seeded per well in a 12-well plate and transfected with 300 ng of pcDNA3-GFP plasmid, 700 ng of pcDNA3-hERG plasmid with either the wild-type or mutant channels (S624A, S649A, or Y652A), and […] of JetOPTIMUS. After 8 h, cells were detached and reseeded at a density of 30,000 cells per well onto several poly-D-lysine-coated glass coverslips placed in a 12-well plate. For the CB1 receptor activity assay, the AequoScreen® recombinant Chinese hamster ovary (CHO) K1 cell line, stably expressing the human CB1 receptor (ES-110-A), was used (Revvity, Sollentuna, Sweden).
Automated patch-clamp recordings were performed at 22 °C. Freshly harvested cell suspensions (2–3 million cells/mL) were prepared for experiments by the QPatch II 48 automated cell preparation unit. Cells were centrifuged for 150 s at 150 × g and washed twice with the extracellular recording solution. Cells were handled by the integrated pipetting robot and added to the 48 experiment sites on the planar patch-clamp consumable QPlate. Each experiment site contained an individual pair of recording electrodes and a silicon/glass biochip embedded in the flow channels. Single-cell patch recordings (n = 1 is defined as one single-cell patch) and population patch recordings (up to 10 cells per well, n = 1 is defined as one population patch) were performed for hERG and for KV7.1/KCNE1, respectively. Cells were applied, positioned and sealed to the patch holes by a mild suction protocol; whole-cell access was then achieved by a stronger suction pulse.
The intracellular solution contained (in mM): 100 KCl, 4.3 CaCl2, 1.4 MgCl2, 25/10 KOH/EGTA, 24 KF, 10 HEPES, and 4 Mg-ATP (hERG) or 4 Na-ATP (KV7.1/KCNE1). […] The compounds were pre-diluted in DMSO, and the final concentration of DMSO (0.3%) was equal in all recording solutions to control for vehicle effects. The compounds made no contact with plastics following dilution in extracellular solution.
An overview of experimental conditions is provided in SI Table VII, Square voltage pulses in a voltage ladder protocol were used to study current/voltage (I(V)) relationships. Each voltage protocol was first run three times in the presence of vehicle (extracellular solution supplemented with 0.3% DMSO), the 3rd serving as the baseline. Voltage protocols were repeated in the presence of 4 cumulatively rising concentrations of test compound, followed by application of vehicle for recovery.

human CB1 receptor = target: T1, human CB1 receptor (Homo sapiens, UniProt P21554); experiment: AequoScreen intracellular calcium release assay, CHO-K1 cells stably expressing CB1; type: cell-based; settings: for CB1 receptor Efficacy Emax: normalized to maximum of JWH-018
T1 construct: host or cells: CHO-K1 stably expressing CB1, apoaequorin and Gα16
T1 sequence (P21554 whole entry): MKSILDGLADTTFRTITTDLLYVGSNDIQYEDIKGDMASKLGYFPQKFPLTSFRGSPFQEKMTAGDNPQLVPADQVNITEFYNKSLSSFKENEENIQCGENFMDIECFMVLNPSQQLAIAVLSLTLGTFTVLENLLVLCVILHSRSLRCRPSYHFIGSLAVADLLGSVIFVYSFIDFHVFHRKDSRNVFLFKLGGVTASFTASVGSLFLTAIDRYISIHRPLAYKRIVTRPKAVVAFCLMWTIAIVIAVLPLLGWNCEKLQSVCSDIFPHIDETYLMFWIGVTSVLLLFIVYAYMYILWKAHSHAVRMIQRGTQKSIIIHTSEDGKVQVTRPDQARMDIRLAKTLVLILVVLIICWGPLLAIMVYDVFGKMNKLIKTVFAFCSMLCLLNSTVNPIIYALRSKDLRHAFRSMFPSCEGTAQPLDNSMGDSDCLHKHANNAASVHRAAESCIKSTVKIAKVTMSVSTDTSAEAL

KV7.1/KCNE1 = KV7.1/KCNE1 (Homo sapiens, UniProt P51787); experiment: Automated patch-clamp (APC, population patch), CHO cells stably expressing human KV7.1/KCNE1; type: cell-based; settings: for KV7.1/KCNE1 channel Efficacy (max reduction in Gmax) Gmin, marked *: * Greatest efficacy achieved with a concentration between 10 and 30 µM (no fit); for KV7.1/KCNE1 channel Efficacy (max reduction in Gmax) Gmin: 1 = no reduction of Gmax, 0 = complete reduction
KV7.1/KCNE1, sequence (P51787 whole entry): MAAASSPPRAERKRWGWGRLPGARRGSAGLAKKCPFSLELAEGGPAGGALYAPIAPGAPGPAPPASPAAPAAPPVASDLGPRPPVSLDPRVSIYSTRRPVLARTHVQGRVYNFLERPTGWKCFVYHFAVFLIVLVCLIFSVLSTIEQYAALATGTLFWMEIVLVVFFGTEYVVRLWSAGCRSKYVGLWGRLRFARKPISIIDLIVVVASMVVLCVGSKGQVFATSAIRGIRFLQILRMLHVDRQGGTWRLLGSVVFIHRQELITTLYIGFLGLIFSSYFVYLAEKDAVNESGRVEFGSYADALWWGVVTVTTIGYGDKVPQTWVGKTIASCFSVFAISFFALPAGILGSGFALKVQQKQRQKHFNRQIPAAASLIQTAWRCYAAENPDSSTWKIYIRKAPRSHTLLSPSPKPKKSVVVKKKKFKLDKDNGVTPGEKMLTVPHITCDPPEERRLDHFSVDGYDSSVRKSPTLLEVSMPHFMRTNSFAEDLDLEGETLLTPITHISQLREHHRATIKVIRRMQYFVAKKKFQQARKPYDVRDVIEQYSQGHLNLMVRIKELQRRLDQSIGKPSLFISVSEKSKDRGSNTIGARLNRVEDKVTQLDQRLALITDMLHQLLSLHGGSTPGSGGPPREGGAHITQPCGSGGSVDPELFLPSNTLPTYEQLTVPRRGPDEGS
Procedure: Both hERG and KV7.1/KCNE1 contribute to cardiomyocyte repolarization (Fig. 1g). Inhibition of KV7.1/KCNE1 alone can be proarrhythmic. Moreover, under conditions with impaired hERG function, upregulation of KV7.1/KCNE1 has been proposed to partially compensate for the loss of hERG [38, 39]. […] To assess if SCRAs also affect KV7.1/KCNE1, we used mammalian CHO cells stably expressing human KV7.1/KCNE1. […] At 10 µM, 7 of the SCRAs caused a significant positive shift in V50 (Fig. 5e), with the largest shift induced by MDMB-[…] (ΔV50 = +10.3 ± 1.6 mV).
Automated patch-clamp recordings were performed at 22 °C.
For the KV7.1/KCNE1 voltage ladder protocol (SI Table VII) the solutions were present for 60 s before recording started. KV7.1/KCNE1 cells were kept at a holding voltage of −90 mV, with brief hyperpolarizing steps to −100 mV for 540 ms (to calculate ohmic leakage). […] The time between compound application and the first voltage protocol was 60 s. Time between sweeps was 15 s. The voltage ladder protocol was executed every 220 s.
For Gmax (rel.), N was set to –1. For ΔV50, N was set to 1.

[1] = CB1 receptor Potency EC50, normalized to median EC50 of JWH-018, n ≥ 3 (JWH-030 n = 2)
[2] = read-out: hERG channel Potency IC50 (Gmax reduction), APC, 22 °C, best fit
[3] = normalized to median EC50 of JWH-018, n ≥ 3 (JWH-030 n = 2), read-out: CB1 receptor Potency EC50

| SMILES | EC50 (human CB1 receptor; [1]) [nM] | CB1 receptor Efficacy Emax (human CB1 receptor; n ≥ 3 (JWH-030 n = 2)) [% JWH-018] | KV7.1/KCNE1 channel Efficacy (max reduction in Gmax) Gmin, marked * (KV7.1/KCNE1) | hERG channel Efficacy (max reduction in Gmax) Gmin (hERG (KV11.1); best fit, APC, 22 °C) | IC50 (hERG (KV11.1); [2]) [nM] | EC50 (human CB1 receptor; [3]) [nM] | also measured |
| --- | --- | --- | --- | --- | --- | --- | --- |
| CC(C)(C)[C@H](NC(=O)Cc1cn(Cc2ccc(F)cc2)c2ccccc12)C(N)=O [ADB-FUBIATA] | – | – | – | – | – | – | hERG inhibition (in words) (hERG): inhibit hERG |
| CCCCCN1C(=O)/C(=N\NC(=O)c2ccccc2)c2ccccc21 [BZO-POXIZID] | 349 | 108 | 0.83 | – | – | – | hERG channel Efficacy (max reduction in Gmax) Gmin, marked * (hERG (KV11.1)): 0.79; effect on Gmax of hERG (in words) (hERG (KV11.1)): non-inhibitor |
| N#CCCCCn1nc(C(=O)NCc2ccccc2)c2ccccc21 [Benzyl-4CN-BUTINACA] | – | 109 | 0.73 | 0.00 | 17300 | 408 | – |
| Cc1ccc(S(=O)(=O)n2nc(C(=O)NC(C)(C)c3ccccc3)c3ccccc32)cc1 [Cumyl-TsINACA] | – | 106 | 1.07 | – | – | – | hERG channel Efficacy (max reduction in Gmax) Gmin, marked * (hERG (KV11.1)): 0.94; effect on Gmax of hERG (in words) (hERG (KV11.1)): non-inhibitor; EC50 (human CB1 receptor; read-out: CB1 receptor Potency EC50): 166 nM |
| CCCCCn1cc(C(=O)c2cccc3ccccc23)c2ccccc21 [JWH-018] | 35 | 100 | 1.01 | 0.57 | – | – | IC50 (hERG (KV11.1)): 17300 nM; EC50 (human CB1 receptor; median CB1 EC50 value, median from 139 independent experiments run over many years): 35 nM; EC50 (human CB1 receptor; variability of CB1 EC50 over time, range over 139 independent experiments): 13.7 to 51.9 nM |
| CCCCCn1cc(C(=O)c2ccc(C)c3ccccc23)c2ccccc21 [JWH-122] | – | 105 | 0.87 | 0.73 | 9400 | 8.29 | – |
| CCCCCn1cc(C(=O)c2ccc(CC)c3ccccc23)c2ccccc21 [JWH-210] | – | 110 | – | – | – | 10.1 | hERG channel Efficacy (max reduction in Gmax) Gmin, marked * (hERG (KV11.1)): 0.89; KV7.1/KCNE1 channel Efficacy (max reduction in Gmax) Gmin (KV7.1/KCNE1; best fit): 0 |
| C=CCCCn1nc(C(=O)N[C@H](C(=O)OC)C(C)(C)C)c2ccccc21 [MDMB-4en-PINACA] | – | 109 | 0.57 | 0.27 | 14600 | 16.7 | – |
| CCCCn1nc(C(=O)NC(C(=O)OC)C(C)(C)C)c2cc(Br)ccc21 (stereo not shown) [MDMB-5'Br-BUTINACA] | – | 114 | 0.60 | 0.67 | – | – | IC50 (hERG (KV11.1)): 6200 nM; effect on KV7.1/KCNE1 (in words) (KV7.1/KCNE1; APC): both reduced Gmax and shifted V50 towards more positive voltages |
| COC(=O)[C@@H](NC(=O)c1n[nH]c2ccc(Br)cc12)C(C)(C)C [MDMB-5'Br-INACA] | – | 110 | 0.74 | 0.57 | 25300 | 849 | – |
| COC(=O)C(NC(=O)c1cn(CC2CCCCC2)c2ccccc12)C(C)(C)C (stereo not shown) [MDMB-CHMICA] | 3.07 | 107 | 0.78 | 0.55 | – | – | IC50 (hERG (KV11.1)): 3200 nM; effect on Gmax of hERG (in words) (hERG (KV11.1)): clear inhibiting Gmax effects on hERG |
| COC(=O)[C@@H](NC(=O)c1nn(Cc2ccc(F)cc2)c2ccccc12)C(C)(C)C [MDMB-FUBINACA] | – | 103 | 0.59 | 0.25 | 10200 | 0.795 | CB1 EC50 (in words) (human CB1 receptor): sub-nanomolar |
| COC(=O)C(NC(=O)c1nn(CC2CCCCC2)c2ccccc12)C(C)(C)C (stereo not shown) [MDMB-[…]] | 1.4 | 106 | 0.52 | 0.60 | – | – | IC50 (hERG (KV11.1)): 12400 nM; ΔV50 of KV7.1/KCNE1 (KV7.1/KCNE1; 10 µM): +10.3 ± 1.6 mV |
| COC(=O)[C@@H](NC(=O)c1cn(CC2CCCCC2)c2ccccc12)C(C)C [MMB-CHMICA] | – | 109 | – | 0.75 | 2600 | 8.76 | KV7.1/KCNE1 channel Efficacy (max reduction in Gmax) Gmin (KV7.1/KCNE1; best fit): 0.83 |
| O=C(c1cccc2ccccc12)c1nn(CCCCCF)c2ccccc12 [THJ-2201] | – | 92.8 | – | 0.73 | 2040 | 45.6 | effect on KV7.1/KCNE1 (in words) (KV7.1/KCNE1; APC): well-defined concentration–response relationships for both effects; IC50 (KV7.1/KCNE1; APC, best fit, read-out: KV7.1/KCNE1 channel Potency IC50 (Gmax reduction)): 4700 nM; KV7.1/KCNE1 channel Efficacy (max reduction in Gmax) Gmin (KV7.1/KCNE1; best fit): 0.59 |
| CCCCCn1cc(C(=O)C2C(C)(C)C2(C)C)c2ccccc21 [UR-144] | 414 | 101 | 0.92 | – | – | – | hERG channel Efficacy (max reduction in Gmax) Gmin, marked * (hERG (KV11.1)): 0.94; effect on Gmax of hERG (in words) (hERG (KV11.1)): non-inhibitor |
| CC1(C)C(C(=O)c2cn(CCCCCF)c3ccccc23)C1(C)C [XLR-11] | 260 | 105 | 0.87 | 0.54 | – | – | IC50 (hERG (KV11.1)): 20400 nM; effect on Gmax of hERG (in words) (hERG (KV11.1)): concentration-dependent inhibitory effects on Gmax |
